Data reported in the Deep4Chem optical property database.
Each block holds one molecule with its values, some of them ahead of it.

Experiment: solvent given as SMILES
[1] = in c1ccc2c(c1)c1ccccc1n2-c1ccc(-c2ccc(-n3c4ccccc4c4ccccc43)cc2)cc1

SMILES: O=c1c2ccc(N3CCCCC3)cc2oc2cc(N3CCCCC3)ccc12
emission maximum (in CO): 448.15 nm
emission maximum (in ClCCl): 407.47 nm

SMILES: c1ccc(-n2c(-c3cccc4ccccc34)nc3c4ccccc4c4ccccc4c32)cc1
emission maximum (in C1CCOC1): 413.91 nm
emission maximum (in CCCCCC): 384 nm
emission maximum (in CS(C)=O): 423 nm
emission maximum (in Cc1ccccc1): 410 nm
emission maximum (in ClCCl): 415.6 nm

SMILES: CCCCCCCc1ccc(C2=[N+]3C(=C4c5cc(OCC(CC)CC)c(-c6ccc(CCCCCCC)o6)n5[B-](F)(F)[n+]5nnn(c54)[B-]3(F)F)C=C2OCC(CC)CC)o1
emission maximum (in C1CCOC1): 829 nm
emission maximum (in ClCCl): 835 nm

SMILES: CN(C)C1=Nc2cccc3cccc1c23
emission maximum (in CC#N): 589 nm

SMILES: CC1CCC(=CS/C=C/c2ccc(/C=C/SC=C3CCC(C)CC3)cc2)CC1 (stereo not drawn)
emission maximum (in ClCCl): 427 nm

SMILES: CC1(C)c2ccccc2N(c2ccc(-c3ccc4c(c3)C(=O)c3ccc(-c5ccc(N6c7ccccc7C(C)(C)c7ccccc76)cc5)cc3C4=O)cc2)c2ccccc21
emission maximum (in Cc1ccccc1): 609 nm
emission maximum [1]: 564 nm

SMILES: Cc1ccc(N(c2ccc(C)cc2)c2ccc(-c3ccc(C=C(C#N)C#N)s3)cc2)cc1
emission maximum (in ClC(Cl)Cl): 670 nm

SMILES: COc1ccc(/C=C/c2ccc(/C=C/c3cc[n+]4ccc(/C=C/c5ccc(/C=C/c6ccc(OC)cc6)cc5)cc4c3)cc2)cc1
emission maximum (in CO): 620 nm

SMILES: CC1=CC2=Nc3nc(C)[n+](C)cc3CN2C=C1
emission maximum (in CC#N): 432 nm
emission maximum (in CCO): 433 nm
emission maximum (in O): 426 nm

SMILES: c1ccc(Nc2nc(Nc3ccccc3)nc(Nc3ccc4ccc5cccc6ccc3c4c56)n2)cc1
emission maximum (in CC#N): 395 nm
emission maximum (in CCCCOCCCC): 394 nm
emission maximum (in CO): 395 nm

SMILES: Nc1ccc2cc(-c3ccc(C(F)(F)F)cc3)oc(=O)c2c1
emission maximum (in CC(C)=O): 439 nm
emission maximum (in CCCCCC): 418 nm
emission maximum (in CCCCO): 460 nm
emission maximum (in CCCO): 459 nm
emission maximum (in CCO): 460 nm
emission maximum (in CCOC(C)=O): 436 nm
emission maximum (in CN(C)C=O): 448 nm
emission maximum (in CO): 461 nm
emission maximum (in ClC(Cl)Cl): 438 nm

SMILES: CC(C)(C)c1ccc2c(c1)c1cc(C(C)(C)C)cc3c1n2-c1cc(-c2ccc(F)cc2)cc2c1B3c1cc(C(C)(C)C)cc3c4cc(C(C)(C)C)ccc4n-2c13
emission maximum (in Cc1ccccc1): 496.94 nm

SMILES: Cc1cccc2nc3[nH]c(=O)[nH]c(=O)c3nc12
emission maximum (in CC#N): 452 nm

SMILES: CN(C)c1ccc2nc(/C=C/c3ccccc3)c(=O)oc2c1
emission maximum (in C1CCCCC1): 488 nm
emission maximum (in C1COCCO1): 533 nm
emission maximum (in CC#N): 567 nm
emission maximum (in CC(C)=O): 557 nm
emission maximum (in CCCCCCC): 485 nm
emission maximum (in CCO): 574 nm
emission maximum (in CCOC(C)=O): 541 nm
emission maximum (in CN(C)C=O): 571 nm
emission maximum (in CS(C)=O): 581 nm
emission maximum (in Cc1ccccc1): 523 nm
emission maximum (in ClC(Cl)Cl): 542 nm
emission maximum (in ClCCl): 547 nm

SMILES: COc1ccc(N(c2ccc(OC)cc2)c2ccc3c4cccc5c(N(c6ccc(OC)cc6)c6ccc(OC)cc6)ccc(c6cccc2c63)c54)cc1
emission maximum (in C1CCCCC1): 551 nm
emission maximum (in C1CCOC1): 583 nm
emission maximum (in CC#N): 598 nm
emission maximum (in Cc1ccccc1): 574 nm
emission maximum (in ClCCl): 591 nm

SMILES: CCCC1(CCC)c2cc(-c3ccc(-c4ccc(OC)cc4)o3)ccc2-c2ccc(-c3ccc(-c4ccc(OC)cc4)o3)cc21
emission maximum (in C1CCCCC1): 425 nm

SMILES: C[Si](C)(C)c1sc([Si](C)(C)C)c2c1sc1c3sc4c(sc5c4sc4c([Si](C)(C)C)sc([Si](C)(C)C)c45)c3sc12
emission maximum (in ClC(Cl)Cl): 442 nm

SMILES: FC(F)(F)c1ccc(C2=CC3=c4cc(-c5ccc(C(F)(F)F)cc5)c5nc(C(F)(F)C(F)(F)C(F)(F)F)nc6c(-c7ccc(C(F)(F)F)cc7)cc(c4c65)C4=CC(c5ccc(C(F)(F)F)cc5)=C5N=C(C(F)(F)C(F)(F)C(F)(F)F)N=C2C5C43)cc1 (stereo not drawn)
emission maximum (in C1CCOC1): 512 nm

SMILES: CCCCN(CCCC)c1ccc(C#Cc2cc(C#Cc3c(F)c(F)c(F)c(F)c3F)c(C#Cc3c(F)c(F)c(F)c(F)c3F)cc2C#Cc2ccc(N(CCCC)CCCC)cc2)cc1
emission maximum (in ClCCl): 556 nm
emission maximum (in c1ccccc1): 505 nm

SMILES: C(=C\c1ccc(N(c2ccccc2)c2ccccc2)cc1)/c1ccccc1
emission maximum (in CC#N): 455 nm
emission maximum (in CCCCCC): 395 nm

SMILES: CC(=O)Nc1ccc(C2=C/C(=C\c3ccc([N+](=O)[O-])cc3)C(=O)O2)cc1
emission maximum (in C1COCCO1): 550 nm

SMILES: Cc1cc2nc3[nH]c(=O)[nH]c(=O)c3nc2cc1C
emission maximum (in CC#N): 437 nm

SMILES: c1cc2ccc3cc4[nH]c(-c5cc6c(cc7ccc8cccc9ccc6c7c89)[nH]5)cc4c4ccc(c1)c2c34
emission maximum (in C1CCOC1): 482 nm

SMILES: F[B-]1(F)OC(c2ccc(N3CCCCC3)cc2)=Cc2cccc[n+]21
emission maximum (in ClC(Cl)Cl): 499 nm

SMILES: O=S(=O)(c1ccc(N(c2ccccc2)c2ccccc2)cc1)c1ccc(S(=O)(=O)c2ccc(N(c3ccccc3)c3ccccc3)cc2)cc1
emission maximum (in Cc1ccccc1): 451 nm

Second part, led by results:

emission maximum (in CCO): 416 nm
SMILES: COc1cc2c(cc1F)c(=O)c1cc(F)c(OC)cc1n2Cc1ccccc1

emission maximum (in C1CCCCC1): 333 nm
SMILES: C[Si](C)(C)c1ccc(C#N)c2ccccc12

emission maximum (in CCCCCC): 384 nm
emission maximum (in CO): 384 nm
emission maximum (in ClCCl): 385 nm
SMILES: CCCCc1ccc2ccc3c(CCCC)cc(CCCC)c4ccc1c2c34

emission maximum (in C1CCOC1): 604 nm
SMILES: O=C(c1ccc(N2c3ccccc3Sc3ccccc32)cc1)c1ccc2sc3ccccc3c2c1
emission maximum [1]: 524 nm

emission maximum (in C1CCCCC1): 482 nm
emission maximum (in CC#N): 506 nm
emission maximum (in CO): 500 nm
emission maximum (in ClCCl): 506 nm
emission maximum (in O): 507 nm
SMILES: c1ccc(-c2nc(-c3c[nH]c4ccccc34)n3ccccc23)cc1

emission maximum (in CC#N): 406 nm
SMILES: CN(C)c1ccc(-c2nc3cc(C(F)(F)F)ccc3n2-c2ccccc2)cc1

emission maximum (in C1CCCCC1): 460 nm
emission maximum (in C1COCCO1): 470 nm
emission maximum (in CC#N): 495 nm
emission maximum (in CN(C)C=O): 515 nm
emission maximum (in ClC(Cl)Cl): 475 nm
SMILES: N#Cc1c2nc3ccccn3c2nc2c1nc1ccccn12

emission maximum (in ClCCl): 406 nm
SMILES: COc1cc2c(cc1OC)C1=C[C@H](c3ccc(Cl)cc3)C3(C(C#N)=C(C#N)N1CC2)c1cc(Cl)ccc1-c1ccc(Cl)cc13

emission maximum (in C1COCCO1): 527 nm
emission maximum (in CC#N): 530 nm
emission maximum (in CO): 532 nm
emission maximum (in ClCCCl): 531 nm
SMILES: CCn1c(=O)nc2n(C)c3cc(C)ccc3nc-2c1=O

emission maximum (in CS(C)=O): 414 nm
emission maximum (in O): 428 nm
SMILES: CCCCCn1c2ccccc2c(=O)c2ccccc21

emission maximum (in c1ccccc1): 564 nm
SMILES: Cc1nc2c(ccc3ccc(N(C)C)cc32)oc1=O

emission maximum (in CO): 574 nm
SMILES: C#CCOc1ccc(/C=C/C2=[N+]3C(=C(c4ccccc4)c4c(C)cc(C)n4[B-]3(F)F)C(C)=C2)cc1

emission maximum (in CS(C)=O): 407 nm
SMILES: Fc1ccccc1-c1nc2sc3ccccc3c2s1

emission maximum (in C1CCCCC1): 595.5 nm
emission maximum (in CCOC(C)=O): 595 nm
emission maximum (in CO): 595 nm
SMILES: Cc1ccccc1C1=C2C=c3c(oc4ccccc34)=[N+]2[B-](F)(F)n2c1cc1c3ccccc3oc12

emission maximum (in ClCCl): 600 nm
SMILES: COc1ccc2cc(/C=C/C3=[O+][B-](F)(F)OC(/C=C/c4ccc5cc(OC)ccc5c4)=C3c3ccccc3)ccc2c1

emission maximum (in ClCCl): 634 nm
SMILES: COc1c2ccccc2c(OC)c2c(C#CC(C)(C)C)c3cc4sccc4cc3c(C#CC(C)(C)C)c12

emission maximum (in C1CCCCC1): 373 nm
SMILES: CCn1c2ccccc2c2ccc(C#N)cc21

emission maximum (in ClCCl): 456 nm
SMILES: COc1cc(C(=O)c2c(C)c3ccc4cccc5c6cccc7ccc2c(c76)c3c45)cc(OC)c1OC

emission maximum (in CC#N): 517 nm
emission maximum (in ClCCl): 511 nm
SMILES: Cn1c(=O)cc(C(=O)c2ccccc2)c2sc(-c3ccc(C(F)(F)F)cc3)cc21
